13 compounds from patent publication US7951789B2 (priority 2006, dated 2011) can be followed below.

The subject of data set [1] is wild-type HBV (secreted virions). The experiment in a line: Anti-HBV activity in HBV virions via endogenous polymerase assay (EPA). The class given is cell-based. As to conditions: Hepatitis B virus, read-out: Virion EC50 (μM). The protocol: (§1) Compounds were tested in an anti-HBV assay. Determination of anti-HBV activity in HBV virions and nucleocapsids via endoenous polymerase assays (EPA)
(§2) • 1. 12-well collagen-I coated plates were seeded with producer cells expressing wild-type HBV at a density of 0.5-1×10^6 cells per well in 2 ml growth/selection media. • 2. Drug stock solutions were made up freshly in 100% DMSO as 200× stocks. Five additional 4-fold dilutions were prepared from these 200× stock in 100% DMSO. For each experiment, 4 aliquots of each drug dilution series were stored at −20° C. until used. • 3. Once cells reached confluency (1 day after cells were seeded), drug treatment was initiated by adding 10 μl of drug dilution into 2 ml of fresh growth/selection media. […] The no-drug control wells received only 10 μl of DMSO in fresh media. • 4. Cells were treated every-other-day with 2 ml of fresh drug/medium for a total of 8 days. Cell lysates were then collected on day 10 and subjected to EPA analysis as described below. Preparation of Nucleocapsid-Containing Lysates for Epa Analysis • 1. Cells were grown for 3 to 4 days in 12-well collagen-I coated plates until confluent. • 2. Media was carefully aspirated and the cell monolayers were rinsed once with 1 ml of PBS. • 3. One ml of lysis buffer (50 mM Tris-HCl pH 7.5/150 mM NaCl/5 mM MgCl2/0.2% NP-40) was added to each well. Plates were stored on ice for 30 min to 4 h. • 4. Lysed cells were transferred to 1.5 ml-microfuge tubes. • 5. Lysates were clarified by spinning at 14,000 rpm for 5 min at room temperature. • 6. Clarified lysates were transferred to fresh tubes and immediately frozen on dry-ice, then stored at −80° C. until endogenous polymerase assays were performed as described below. Preparation of Secreted Virions from Supernatant for Epa Analysis • 1. Cells were grown for 3 to 4 days in 12-well collagen-I coated plates until confluent. • 2. Media was carefully aspirated and transferred to 1.5 ml-microfuge tubes. • 3. Supernatants were clarified by spinning at 14,000 rpm for 5 min at room temperature. • 4. Clarified supernatants were transferred to fresh tubes and immediately frozen on dry-ice, then stored at −80° C. until endogenous polymerase assays were performed essentially as described below. Endogenous Polymerase Assay (EPA) of Cell Lysates and Supernatants • 1. EPAs were performed essentially as described by Seifer et al (1998). Intracellular HBV nucleocapsids were immunoprecipitated from the cytoplasmic lysates overnight at 4° C. with a polyclonal rabbit anti-HBcAg antibody and immobilized on protein A sepharose CL-4B beads. Secreted virions were immunoprecipitated from clarified cell supernatants overnight at 4° C. with a monoclonal mouse anti-LS antibody (MA18/7) in the absence of detergent. • 2. Following 3 washes of the immobilized capsids or virions with 1 ml of EPA wash buffer (75 mM NH4Cl, 50 mM Tris-HCl pH 7.4, 1 mM EDTA), endogenous polymerase reactions were initiated by adding 50 μl of detergent-containing EPA cocktail (50 mM Tris-HCl pH7.4, 75 mM NH4Cl, 1 mM EDTA, 20 mM MgCl2, 0.1 mM β-ME, 0.5% NP-40, 100 μM cold dGTP, TTP, dCTP, and 50 nM ^33P-dATP) and incubated overnight at 37° C. The detergent is required to strip the outer envelope from immunoprecipitated virions as well as to enhance permeability of the nucleocapsids. • 3. Following digestion with 1 mg/ml of proteinase K for 1 h at 37° C., endogenously ^33P-labeled HBV DNA was liberated via phenol/chloroform extraction. • 4. The nucleic acids were precipitated with 1 volume of 5M NH4-acetate and 2.5 volumes of 100% EtOH, and then separated on a 1% native agarose gel in Tris-borate-EDTA buffer. • 5. Gels were blotted onto positively charged nylon membrane overnight at room temperature via capillary transfer in 0.4 N NaOH. • 6. Dried membranes were exposed to a Phosphorlmager screen (GE Healthcare) overnight at room temperature, then scanned (Storm 860, GE Healthcare) and quantitated with ImageQuant software (GE Healthcare). • 7. […]

In data set [2] the test system is wild-type HBV (intracellular nucleocapsids). The experiment in a line: Anti-HBV activity in HBV nucleocapsids (RI) via endogenous polymerase assay (EPA). The class given is cell-based. As to conditions: Hepatitis B virus. The protocol:
as §1, §2

The subject of a further data set is HCV genotype 1. Kind of data set: Antiviral activity in chimpanzees chronically infected with HCV genotype 1. In kind it is in vivo. As to conditions: 4 days; for Mean viral load reduction: HCV-infected chimpanzees, 10 mg/kg/day oral once daily. Here is the method:
(§3) Methods: For pharmacokinetic (PK) and toxicology studies, B102 were orally administered to rats or monkeys at doses from 20 to 300 mg/kg/day up to 14 days. Hepatic nucleoside TP levels were determined by LC-MS/MS. Compounds (10 mg/kg/day) were administered once daily by oral gavage for 4 days in chimpanzees chronically infected with HCV genotype 1. HCV viral loads were monitored before, during and after treatment by quantitative RT-PCR.

The next data set concerns HBV wt (HepG2). The experiment in a line: Anti-HBV activity in HBV-infected HepG2 cells. In kind it is cell-based. As to conditions: N=3. The protocol: The compound of Example 1 (NM 204) (Hydroxy-tBuSATE N-benzylphosphoramidate derivative of L-ddA) (A550) was contacted with HBV-infected HepG2 cells. EC50 values were measured according to standard techniques.
Data set [3] deals with HCV Conl subgenomic replicon (GS4.1 cells). The experiment in a line: HCV replicon assay (NS4A ELISA, HCV ELISA 2). The class given is cell-based. As to conditions: Hepatitis C virus; GS4.1 cells, 72 hours, NS4A ELISA; read-out: HCV ELISA 2 EC50. Here is the method:
(§4) Huh-7 cells containing HCV Conl subgenomic replicon (GS4.1 cells), (C. Seeger; Fox Chase University, Philadelphia, Pa., USA), are grown in Dulbecco's Modified Eagle Medium (DMEM) supplemented with 10% fetal bovine serum (FBS), 2 mM L-glutamine, 110 mg/L sodium pyruvate, 1×non-essential amino acids, 100 U/mL penicillin-streptomycin and 0.5 mg/mL G418 (Invitrogen). For dose-response testing, the cells are seeded in 96-well plates at 7.5×10^3 cells/well in a volume of 50 μL and incubated at 37° C./5% CO2. Three hours after plating, 50 μL of ten 2-fold serial dilutions of compounds (highest concentration, 75 μM) are added and cell cultures were incubated at 37° C./5% CO2 in the presence of 0.5% DMSO. Alternatively, compounds are tested at a single concentration of 15 μM. In all cases, Huh-7 cells lacking the HCV replicon served as negative control. The cells are incubated in the presence of compounds for 72 hours after which they were monitored for expression of the NS4A protein by enzyme-linked immunosorbent assay (ELISA). For this, the plates were then fixed for 1 min with 1:1 acetone:methanol, washed twice with phosphate-buffered saline (PBS), 0.1% Tween 20, blocked for 1 hour at room temperature with TNE buffer containing 10% FBS and then incubated for 2 h at 37° C. with the anti-NS4A mouse monoclonal antibody A-236 (ViroGen) diluted in the same buffer. After washing three times with PBS, 0.1% Tween 20, the cells are incubated 1 hour at 37° C. with anti-mouse immunoglobulin G-peroxidase conjugate in TNE, 10% FBS. After washing as described above, the reaction is developed with O-phenylenediamine (Zymed). The reaction is stopped after 30 minutes with […] and the absorbance is read at 492 nm using a Sunrise Tecan spectrophotometer. EC50 values are determined from the % inhibition versus concentration data using a sigmoidal non-linear regression analysis based on four parameters with Tecan Magellan software. […] For cytotoxicity evaluation, GS4.1 cells are treated with compounds as described above and cellular viability was monitored using a Cell Titer 96 AQueous One Solution Cell Proliferation Assay (Promega). CC50 values are determined from the % cytotoxicity versus concentration data with Tecan Magellan software as described above.

A short description of data set [4]: Cytotoxicity evaluation in GS4.1 cells (Cell Titer 96 AQueous One Solution). The class given is cell-based. The following applies: human, 72 hours. The protocol:
as §4

The nature of data set [5]: Pharmacokinetic (PK) studies, oral, rat. The class given is in vivo. The following applies: orally administered. Here is the method:
as §3

The nature of data set [6]: Pharmacokinetic (PK) studies, oral, monkey. The class given is in vivo. The following applies: orally administered. Here is the method:
as §3

Where [7] appears, read: wild-type HBV producer cell line, intracellular nucleocapsids, EPA, read-out: RI EC50.

Like-named read-outs stand apart in the source and are kept apart here.

In general, EC50 refers to the concentration at which the effect is half-maximal. By CC50 is commonly meant the concentration that lowers cell viability or growth by half.

For `CC(C)NP(=O)(OCCSC(=O)C(C)(CO)CO)OC[C@@H]1CC[C@H](n2cnc3c(N)ncnc32)O1` (stereo partly drawn) [A362 (NM 77)], the EC50 in data set [1] and in data set [2] (setting [7]) was 1 to 10 µM in each case.

For the compound `CC(C)NP(=O)(OCCSC(=O)C(C)(C)CO)OC[C@H]1CC[C@@H](n2cnc3c(N)ncnc32)O1` (stereo partly drawn) [Example C791], the EC50 in data set [1] lay within 1 to 10 µM. For the compound `CC(C)NP(=O)(OCCSC(=O)C(C)(CO)CO)OC[C@H]1CC[C@@H](n2cnc3c(N)ncnc32)O1` (stereo partly drawn) [A361 (NM 55)], the EC50 was greater than 10 µM in data set [1] and 1 to 10 µM in data set [2] (setting [7]). For `CC(C)[C@H](N)C(=O)O[C@@H]1[C@@H](CO)O[C@@H](n2ccc(N)nc2=O)[C@]1(C)O` [valopicitabine, reference compound], the “Mean viral load reduction” value with HCV genotype 1 was 0.7 log 10.

Turning to `CC(C)NP(=O)(OCCSC(=O)C(C)(C)CO)OC[C@@H]1CC[C@H](n2cnc3c(N)ncnc32)O1` (stereo partly drawn) [A348 (NM 48)], the EC50 in data set [1] was less than 1 µM.

For the compound `CC(C)(CO)C(=O)SCCOP(=O)(NCc1ccccc1)OC[C@H]1CC[C@@H](n2cnc3c(N)ncnc32)O1` (stereo partly drawn) [A550 (NM 204)], the EC50 in data set [1] and in data set [2] (setting [7]) was less than 1 µM each time. In turn, `CC(C)(CO)C(=O)SCCOP(=O)(NCc1ccccc1)OC[C@H]1CC[C@@H](n2cnc3c(N)ncnc32)O1` (stereo partly drawn) [Ex 1 (A550)] showed an EC50 with HBV wt (HepG2) (Hepatitis B virus) of 0.062 ± 0.018 µM.

On to `Nc1ncnc2c1ncn2[C@@H]1CC[C@H](CO)O1` [LddA, L-ddA], for which the EC50 with HBV wt (HepG2) is greater than 10 µM. Take `CC(C)N(C(C)C)P(=O)(OCCSC(=O)C(C)(C)CO)OC[C@@H]1CC[C@H](n2cnc3c(N)ncnc32)O1` (stereo partly drawn) [A616 (NM 128)]: in data set [2] (read-out: RI EC50 (μM)), the EC50 was 1 to 10 µM. In the case of `Cc1cn([C@@H]2CC(O)[C@H](CO)O2)c(=O)[nH]c1=O` (stereo partly drawn) [L-dT, Telbivudine, reference compound], in data set [2] (setting [7]), the EC50 is less than 1 µM.

`Nc1ccn([C@@H]2CS[C@H](CO)O2)c(=O)n1` [Lamivudine, lamivudine]: in the data set with HBV wt (HepG2) (Hepatitis B virus), the midpoint of the response, the EC50, lay at 0.022 ± 0.007 µM. In the case of `CC(C)(CO)C(=O)SCCOP(=O)(NCc1ccccc1)OC[C@@H]1CC[C@H](n2cnc3c(N)ncnc32)O1` (stereo partly drawn) [C819 (NM 177)], the EC50 in data set [1] and in data set [2] (setting [7]) was 1 to 10 µM each time. As to `CC(C)(CO)C(=O)SCCOP(=O)(NCc1ccccc1)OC[C@H]1O[C@@H](n2ccc(N)nc2=O)[C@](C)(O)[C@@H]1O` (mixture of isomers) [Example B102, Hydroxy-tBuSATE N-benzylphosphoramidate Derivative of 2′-C-methylcytidine], in data set [3], the EC50 is 1 to 10 µM. This compound also showed a CC50 in data set [4] greater than 75 µM. Further, in data set [5], the first-pass hepatic extraction is given as greater than 95% and the systemic exposure was less than 1%. For the same compound, in data set [6], the first-pass hepatic extraction is greater than 95% and the systemic exposure is listed as less than 1%. The “Mean viral load reduction” value in the data set with HCV genotype 1 was 1.5 log 10. In addition, in the data set on HCV genotype 1 (chimpanzees, 10 mg/kg/day oral), the “lab abnormalities or evidence of toxicities” value is “No lab abnormalities or evidence of toxicities were observed”.
